This passage reports IC50 results from article PMC8267177, “Cyclic Peptoid-Peptide Hybrids as Versatile Molecular Transporters” (Frontiers in Chemistry, 2021).

Non-standard residues stand in square brackets, D forms with d. Residues, ends and D or L forms follow the SMILES beside them. *: point of attachment. RhodamineB = CCN(CC)c1ccc2c(-c3ccccc3C(=O)*)c3ccc(=[N+](CC)CC)cc-3oc2c1; Gly(Nα-4-Cl-benzyl) = O=C(O)CNCc1ccc(Cl)cc1; Nphe = O=C(O)CNCc1ccccc1; NBuGly = CCCCNCC(=O)O; Nlys = NCCCCNCC(=O)O A value given as a limit tells only on which side of the number the result lay.

This series can be described thus: in vitro. Particulars: human. Format: cell-based. As to the method:
The cytotoxicity of the macrocyclic hybrids 15–24, as well as their conjugates 15-Rhod to 24-Rhod, was examined using a standard MTT assay in human epithelial cervix carcinoma (HeLa) cells. […] ([Mosmann, 1983]; [Tolosa et al., 2015]) After treatment of HeLa cells with different concentrations of the respective macrocycles 15–24 (0.50─50 µM) for 72 h, no significant cytotoxic effects were observed. […] As shown by many research groups that Rhodamine B by itself is not efficiently entering the cells showing therefore an LD50 > 50 μM, we assume that this the toxicity of the Rhodamine moiety might be higher when increasingly localizing in the mitochondria to a higher amount.
In a 96-well plate (Corning® Costar® 3596 96-Well Cell Culture Cluster), 1.0 × 10^4 HeLa-cells per well of a 96 well plate were cultivated for 16 h. Stock solutions of the single compounds in dimethylsulfoxide were diluted to 0.50 µm, 5.00 µm, and 50.0 µm with cell culture medium (DMEM + 10% FBS + 1% P/S) to ensure a final concentration of DMSO below 0.5%. 100 µL of the prepared DMEM diluted compounds were added to each well and the cells were incubated for 72 h. All experiments were performed in triplicates. Cells that were solely treated with the culture medium containing 0.5% of DMSO served as a negative control. After incubation, the positive control (cells in DMSO plus 0.5% DMSO) was treated with 1% Triton-X. To determine the viability of the cells 20 µL of a freshly prepared solution of 3-(4,5-dimethylthiazol-2-yl)-2,5-diphenyltetrazolium bromide (MTT, 2.73 mg/mL, Sigma-Aldrich®) in culture medium were added to each well and incubated at 37 °C for 4 h. The reaction was stopped using 100 µL of Solubilization Solution / Stop Mix (CellTiter 96® Non-Radioactive Cell Proliferation Assay, Promega). After 24 h, the absorption (A) of every well at 595 nm was monitored using a 96-well plate reader (Ultra Microplate Reader ELx808, Biotech Instruments Inc.).

What is called IC50 is the midpoint of a concentration-inhibition curve. As for `NCCCCN1CC(=O)N[C@@H](Cc2ccccc2)C(=O)N[C@@H](Cc2ccccc2)C(=O)N(Cc2ccc(Cl)cc2)CC(=O)N(Cc2ccc(Cl)cc2)CC(=O)N(Cc2ccc(Cl)cc2)CC1=O` [compound 23, cyclo-(l-Phe-N1ph^pCl-N1ph^pCl-N1ph^pCl-N4am-l-Phe)] (cyclo(FF[Gly(Nα-4-Cl-benzyl)][Gly(Nα-4-Cl-benzyl)][Gly(Nα-4-Cl-benzyl)][Nlys])), the midpoint of inhibition, the IC50 at 72 h, lay at 20 µM.

`CCCCN1CC(=O)N(Cc2ccccc2)CC(=O)N(CCCCNC(=O)c2ccccc2-c2c3ccc(=[N+](CC)CC)cc-3oc3cc(N(CC)CC)ccc23)CC(=O)N[C@@H](Cc2ccccc2)C1=O` [17-Rhod, cyclo-(l-Phe-N3m-N1ph-N4am(Rhod))] (cyclo(F[NBuGly][Nphe][Nlys](RhodamineB))): the IC50 at 72 h is above 50 µM.

On to `NCCCC[C@@H]1NC(=O)CN(Cc2ccc(Cl)cc2)C(=O)CN(Cc2ccc(Cl)cc2)C(=O)[C@H](Cc2c[nH]c3ccccc23)NC1=O` [compound 20, cyclo-(l-Trp-N1ph^pCl-N1ph^pCl-l-Lys)] (cyclo([Gly(Nα-4-Cl-benzyl)][Gly(Nα-4-Cl-benzyl)]KW)), for which the IC50 at 72 h was above 50 µM.

`CCCCN1CC(=O)N(Cc2ccccc2)CC(=O)N(CCCCN)CC(=O)N[C@@H](Cc2ccccc2)C(=O)N[C@@H](Cc2ccccc2)C(=O)N(CCCC)CC1=O` [compound 24, cyclo-(l-Phe-N3m-N3m-N1ph-N4am-l-Phe)] (cyclo(FF[NBuGly][NBuGly][Nphe][Nlys])) came in with an IC50 at 72 h above 50 µM.

In turn, `NCCCCN1CC(=O)N(Cc2ccccc2)CC(=O)N[C@@H](Cc2ccccc2)C(=O)N(Cc2ccc(Cl)cc2)CC1=O` [compound 16, cyclo-(l-Phe-N1ph^pCl-N4am-N1ph)] (cyclo(F[Gly(Nα-4-Cl-benzyl)][Nlys][Nphe])) came in with a 50% inhibitory concentration (IC50) at 72 h above 50 µM.

The molecule `NCCCCN1CC(=O)N(Cc2ccccc2)CC(=O)N[C@@H](Cc2ccc(O)cc2)C(=O)N[C@@H](Cc2ccccc2)C1=O` [compound 18, cyclo-(l-Phe-N4am-N1ph-l-Tyr)] (cyclo(F[Nlys][Nphe]Y)) returned an IC50 at 72 h above 50 µM.

As for `CCN(CC)c1ccc2c(-c3ccccc3C(=O)NCCCCN3CC(=O)N(Cc4ccccc4)CC(=O)N[C@@H](Cc4ccccc4)C(=O)N(Cc4ccc(Cl)cc4)CC3=O)c3ccc(=[N+](CC)CC)cc-3oc2c1` [16-Rhod, cyclo-(l-Phe-N1ph^pCl-N4am(Rhod)-N1ph)] (cyclo(F[Gly(Nα-4-Cl-benzyl)][Nlys](RhodamineB)[Nphe])), the IC50 at 72 h came to 30 µM.

For `CCN(CC)c1ccc2c(-c3ccccc3C(=O)NCCCC[C@@H]3NC(=O)CN(Cc4ccc(Cl)cc4)C(=O)CN(Cc4ccc(Cl)cc4)C(=O)[C@H](Cc4c[nH]c5ccccc45)NC3=O)c3ccc(=[N+](CC)CC)cc-3oc2c1` [20-Rhod, cyclo-(l-Trp-N1ph^pCl-N1ph^pCl-l-Lys(Rhod))] (cyclo([Gly(Nα-4-Cl-benzyl)][Gly(Nα-4-Cl-benzyl)]K(RhodamineB)W)), the half-inhibitory concentration (IC50) at 72 h was above 50 µM.

Turning to `CCCCN1CC(=O)N[C@@H](CCCCN)C(=O)N[C@@H](Cc2ccc(O)cc2)C(=O)N(CCCC)CC1=O` [compound 21, cyclo-(l-Tyr-N3m-N3m-l-Lys)] (cyclo(KY[NBuGly][NBuGly])), the concentration for half-maximal inhibition (IC50) at 72 h was above 50 µM.

As for `NCCCCN1CC(=O)N[C@@H](Cc2ccccc2)C(=O)N(Cc2ccccc2)CC(=O)N(Cc2ccccc2)CC1=O` [compound 15, cyclo-(l-Phe-N1ph-N1ph-N4am)] (cyclo(F[Nphe][Nphe][Nlys])), the half-inhibitory concentration (IC50) at 72 h was above 50 µM.

Take `CCCCN1CC(=O)N[C@@H](CCCCNC(=O)c2ccccc2-c2c3ccc(=[N+](CC)CC)cc-3oc3cc(N(CC)CC)ccc23)C(=O)N[C@@H](Cc2ccc(O)cc2)C(=O)N(CCCC)CC1=O` [21-Rhod, cyclo-(l-Tyr-N3m-N3m-l-Lys(Rhod))] (cyclo(K(RhodamineB)Y[NBuGly][NBuGly])): half-maximal inhibition (IC50 at 72 h) was put at 36 µM. This counts as double-digit micromolar.

The molecule `CCN(CC)c1ccc2c(-c3ccccc3C(=O)NCCCCN3CC(=O)N[C@@H](Cc4ccccc4)C(=O)N(Cc4ccccc4)CC(=O)N(Cc4ccccc4)CC3=O)c3ccc(=[N+](CC)CC)cc-3oc2c1` [15-Rhod, cyclo-(l-Phe-N1ph-N1ph-N4am(Rhod))] (cyclo(F[Nphe][Nphe][Nlys](RhodamineB))) gave a concentration for half-maximal inhibition (IC50) at 72 h above 50 µM.
